This assay has as its system monkey kidney epithelial cells of the BSC-1 line. In words: Growth-promoting (mitogenic) activity: number of cells in BSC-1 cultures counted four days after addition. The class given is cell-based, African green monkey. Particulars: for EC50: read-out: Growth-Stimulation K½; for stimulation of growth (increase in cell number compared to control at four days): agent alone at maximal mitogenic concentration (14-Ser 0.5 μg/ml; EGF, IGF-I 50 ng/ml; acidic FGF 100 pg/ml; basic FGF 1,000 pg/ml; vasopressin 75 pg/ml; K 10.4 mM; Na 180 mM); for stimulation of growth in the presence of the 14-Ser peptide: mitogenic signal at maximal concentration plus 14-Ser peptide 0.5 μg/ml; for stimulation of growth in the presence of the 14-Ser peptide / mitogenic activity on BSC-1 cells (in words): four days; for mitogenic activity on BSC-1 cells (in words): peptide 0.5 to 20 μg/ml. The procedure:
For the assay, cells were detached from the dish with a solution of trypsin and an aliquot was counted in a hemocytometer.
Nontransformed monkey kidney epithelial cells of the BSC-1 line were grown to confluence in Dulbecco's modified Eagle's medium containing 1% calf serum and […] in 55-mm culture dishes at 38° C. in a CO2 incubator. When cells achieved a density of about 10^6 per dish, the spent medium was removed and replaced with fresh medium containing 0.5% calf serum and the 14-amino acid peptide (0.5 μg/ml). Additions of each of the mitogenic signals at maximal concentration were made to the culture medium. Four days later the number of cells in each culture was counted in a hemocytometer. Values obtained were the mean of 3 separate cultures.
Nontransformed monkey kidney epithelial cells of the BSC-1 line were grown to confluence in Dulbecco's modified Eagle's medium containing 1% calf serum and 1.6 μM biotin at 38° C. in a CO2 incubator. When cells achieved a density of about 10^6 per dish, the spent medium was removed and replaced with fresh medium containing 0.5% calf serum and different amounts of the two peptides. Four days later the number of cells in each culture was counted. Each value is the mean of 3 separate cultures.
To delineate the sequence of the smallest peptide that could stimulate renal cell growth, synthetic peptides of different lengths were prepared (see below), and purified by reversed-phase HPLC on a C18 column.
The peptide of interest was then purified on a reversed-phase C18 column HPLC as described herein using a gradient of 1-80% acetonitrile in 0.1% trifluroacetic acid (TFA). The purified peptide was then lyophilized to remove the acetonitrile and TFA and the lyophilized powder was weighed, dissolved in buffer and added to the culture medium to measure its effect on the growth of monkey kidney epithelial cells as described herein. […] A value termed the K1/2, was used.

Setting [1] is: peptide alone, BSC-1 cells, 4 days in culture.

Values joined by “and” are separate entries in the source; they are usually repeats but may differ in a detail not shown here. Equal values may be shown once. Read-outs that look alike come from different tables or passages of the source. No end group written: not given here.

As for FPEGNH, the EC50 under setting [1] is 2.72 µM.
In the case of `[Cl-].[Na+]` [sodium chloride, reference compound], the “stimulation of growth (increase in cell number compared to control at four days)” value is on record as 25% and the “stimulation of growth in the presence of the 14-Ser peptide” value (“stimulation … of the 14-Ser peptide” below) is listed as 41%.
As for YPEGKH, the EC50 under setting [1] is 14.1 µM.
Same read-out and setting: then “YPQGNH [NH2-tyrosine-proline-glutamine-glycine-asparagine-histidine-COOH]”, with 0.352 µM and 0.332 µM.
For the molecule AQPYPQGNHEAAYG, the EC50 was 0.054 µM (+ keratan sulfate (2 μg/ml for 5 minutes prior to peptide, b158; 10 μg/ml)) and 0.199 µM under setting [1].
Take YPQGNH [YPQGNH-amide]: the EC50 under setting [1] is 8.85 µM.
Still for that read-out and setting: then AQPYPQGNHEATSSSF, with 0.218 µM; and AQPYPEGNHEASYG, with 0.128 µM.
YPQGNHEASYG: the EC50 by setting is: (+ heparin (1 μg/ml)) 0.166 µM; under setting [1], 0.166 µM.
For YPEGDH, the EC50 under setting [1] amounted to 11 µM.
In the case of “acidic fibroblast growth factor [acidic FGF, reference compound]”, the “concentration equivalent in mitogenic potency to partially-purified WGF” value was 0.02 ng/mL, the “effect of keratan sulfate on mitogenic activity” value is recorded as “no effect”, the “stimulation of growth (increase in cell number compared to control at four days)” value is 17% and the “stimulation … of the 14-Ser peptide” value came out at 44%. Besides, the “effect of heparin on mitogenic activity” value (heparin added to BSC-1 cells with the factor) is on record as “inhibits”. Further, the “combined mitogenic effect with WGF (additivity)” value (maximal concentrations, 11-mer with wound conditioned buffer) is “additive”.
For the molecule “insulin-like growth factor-I [IFG-I, reference compound]”, the “stimulation of growth (increase in cell number compared to control at four days)” value was found to be 20% and the “stimulation … of the 14-Ser peptide” value came out at 38%.
As for “WAVGHLM [WAVGHLM-amide, reference compound]”, the EC50 under setting [1] is approximately 10 µM.
On to `[Cl-].[K+]` [potassium chloride, reference compound], for which the “stimulation of growth (increase in cell number compared to control at four days)” value is on record as 18% and the “stimulation … of the 14-Ser peptide” value was determined as 35%.
As to “MAPS peptide: 11-mer AQPYPQGNHEA linked to a branched polylysine core, four branches each ligated to one 11-mer molecule (also: four copies linked to a branched polylysine core (MAPS))”, the “mitogenic activity on BSC-1 cells (in words)” value was “stimulated DNA synthesis and proliferation”.
With YPRGNH [reference compound], the “stimulation of growth (increase in cell number compared to control at four days)” value is 10% and the “mitogenic activity on BSC-1 cells (in words)” value is “not mitogenic to the same extent”.
On to QPYPQG, for which the “mitogenic activity on BSC-1 cells (in words)” value is “not mitogenic”.
